Reference: patent US20080249136A1, “Antimicrobial Composition and Method” (priority 2005, published 2008)

Experiments:
[1] = system: Pseudomonas aeruginosa ATCC #10145; experiment: Efficacy (log kill) against Pseudomonas aeruginosa, 96-well assay block; format: cell-based
Procedure: (§1) The cationic polymers are pH adjusted in the range of 6-7.5. It should be noted that the Ecopol polymers require an acidic environment for complete dissolution. Once the polymer is dissolved, NaOH can be used to bring the pH to the desired range.
(§2) The efficacy of the antimicrobial combinations against Staphylococcus aureus ATCC #6538 and Pseudomonas aeruginosa ATCC #10145 is measured. Testing is done in 96-well 1.5 ml polypropylene assay blocks using 96-well polypropylene sealing mats for covering the samples during incubation. The individual wells in the 96-well assay block are identified as follows: 12 columns numbered 1-12 across the top row of wells on the block, and 8 rows lettered A-H on the first column of the block. Columns 1 and 2 are reserved to test the activity of the biocide in buffer (pH 7.2) in the absence of the cationic polymer. Columns 11 and 12 are always reserved as control, to verify growth of the microorganism in the absence of the biocide. The preparation of the assay blocks involves the following steps in chronological order:
(§3) 1. Preparation of the biocide solution in an appropriate solvent at a concentration equal to 10 times the final concentration desired in row A; 2. Addition of predetermined amount of the stock biocide solution to each well in row A; 3. Addition of a predetermined amount of the solvent to rows B-H and wells 11A and 12A; 4. Serial dilution of the biocide, by transferring a predetermined amount of the solution from row A to row B, mixing, and repeating the transfer down all the rows. After the mixing step in row H, the transferring amount is taken out and disposed of; 5. Inoculation of the buffer and polymer solutions with the test organism. For bacteria, a 24-hour culture is used. Following the incubation period, the organism concentration in the medium is determined by reading the OD at 620 nm. This culture is used to inoculate the buffer and the polymer solution to a bacterial concentration of 1E6 cfu/ml. Fungal challenges are performed with fungal spores isolated from inoculated SDA slants. The spores are collected by swiping the slant with a sterile cotton swab and re-suspended in tryptic soy broth. Tween 80 is added to aid in spore separation and the suspension was homogenized. The spore concentration is obtained by use of a hemacytometer. This suspension is used to inoculate the buffer and the polymeric solutions to a spore concentration of 3-5E6 cfu/ml; 6. Addition of the inoculated buffer or polymer solution to each well. 7. Thorough mixing of the blends in each well; 8. Sampling for the time 0, 24 h, 48 h and 7 days reading is accomplished using a 96-well 300 μl polystyrene microplate. Tryptic Soy broth (TSB) is used for the bacterial studies and Malt (YM) broth buffered at pH 7.4 for fungal studies; 9. The microplates are incubated at 35° C. for bacteria and 30° C. for fungus, until the control samples show adequate growth; and 10. Data is recorded as the log reduction in microorganism concentration relative to the inoculum.

[2] = system: Staphylococcus aureus ATCC #6538; experiment: Efficacy (log kill) against Staphylococcus aureus, 96-well assay block; format: cell-based
Procedure: as §1, §2, §3

## Oc1ccccc1-c1ccccc1 [OPP, ortho-phenylphenol]
[1]; Active Conc. 130.2 ppm
  Log kill 24 h: 0 log
  Log kill 48 h: 1 log
  Log kill 7 days: 1.5 log
  Log kill t0: 0 log
[1]; Active Conc. 182.2 ppm
  Log kill 24 h: 1.5 log
  Log kill 48 h: 2.5 log
  Log kill 7 days: 2.5 log
  Log kill t0: 1.5 log
[1]; Active Conc. 222.2 ppm
  Log kill 24 h: 4.5 log
  Log kill 48 h: 3.5 log
  Log kill 7 days: 4 log
  Log kill t0: 4 log
[2]; Active Conc. 124 ppm
  Log kill 24 h: 2 log
  Log kill 48 h: 2 log
  Log kill 7 days: 6 log
  Log kill t0: 0 log
[2]; Active Conc. 182.2 ppm
  Log kill 24 h: 6 log
  Log kill 48 h: 6 log
  Log kill 7 days: 6 log
  Log kill t0: 1 log
[2]; Active Conc. 278.9 ppm
  Log kill 24 h: 3.5 log
  Log kill 48 h: 3 log
  Log kill 7 days: 4 log
  Log kill t0: 0.5 log
[2]; Active Conc. 418.4 ppm
  Log kill 24 h: 6 log
  Log kill 48 h: 6 log
  Log kill 7 days: 4 log
  Log kill t0: 6 log

## ClC=CC[N+]12CN3CN(CN(C3)C1)C2.[Cl-] [CTAC, 1-(3-chloroallyl)-3,5,7-triaza-1-azoniaadamantane chloride]
[1]; Active Conc. 46.8 ppm
  Log kill 24 h: 0 log
  Log kill 48 h: 0 log
  Log kill 7 days: 0 log
  Log kill t0: 0 log
[1]; Active Conc. 158 ppm
  Log kill 24 h: 0 log
  Log kill 48 h: 0.5 log
  Log kill 7 days: 5 log
  Log kill t0: 0 log
[1]; Active Conc. 355.6 ppm
  Log kill 24 h: 1 log
  Log kill 48 h: 4 log
  Log kill 7 days: 6 log
  Log kill t0: 0 log
[1]; Active Conc. 800 ppm
  Log kill 24 h: 2.5 log
  Log kill 48 h: 5 log
  Log kill 7 days: 6 log
  Log kill t0: 0 log
[2]; Active Conc. 52.7 ppm
  Log kill 24 h: 0 log
  Log kill 48 h: 0 log
  Log kill 7 days: 1 log
  Log kill t0: 0 log
[2]; Active Conc. 79 ppm
  Log kill 24 h: 0 log
  Log kill 48 h: 0 log
  Log kill 7 days: 1 log
  Log kill t0: 0 log
[2]; Active Conc. 177.8 ppm
  Log kill 24 h: 0 log
  Log kill 48 h: 0 log
  Log kill 7 days: 4 log
  Log kill t0: 0 log
[2]; Active Conc. 400 ppm
  Log kill 24 h: 0 log
  Log kill 48 h: 0 log
  Log kill 7 days: 6 log
  Log kill t0: 0 log

## Cc1ccc(S(=O)(=O)C(I)I)cc1 [DIMTS, diiodomethyl-para-tolylsulfone]
[1]; Active Conc. 414 ppm
  Log kill 24 h: 0 log
  Log kill 48 h: 1 log
  Log kill 7 days: 2 log
  Log kill t0: 0 log
[1]; Active Conc. 2000 ppm
  Log kill 24 h: 1 log
  Log kill 48 h: 1 log
  Log kill 7 days: 2 log
  Log kill t0: 0 log
[2]; Active Conc. 189.7 ppm
  Log kill 24 h: 0 log
  Log kill 48 h: 0 log
  Log kill 7 days: 0 log
  Log kill t0: 0 log
[2]; Active Conc. 265.6 ppm
  Log kill 24 h: 0 log
  Log kill 48 h: 0 log
  Log kill 7 days: 0 log
  Log kill t0: 0 log
[2]; Active Conc. 1428.6 ppm
  Log kill 24 h: 0 log
  Log kill 48 h: 0 log
  Log kill 7 days: 2 log
  Log kill t0: 0.5 log
[2]; Active Conc. 2000 ppm
  Log kill 24 h: 1 log
  Log kill 48 h: 1 log
  Log kill 7 days: 6 log
  Log kill t0: 1 log

## Oc1cc(Cl)ccc1Oc1ccc(Cl)cc1Cl [Triclosan, 2,4,4′-trichloro-2-hydroxyphenyl ether]
[1]; 800 ppm of Triclosan
  contact time to achieve 3 log reduction in P. aeruginosa: greater than 48 hours
[1]; Triclosan Conc. 105.3 ppm
  Log kill 24 h: 1 log
  Log kill 48 h: 1 log
  Log kill 7 days: 2 log
  Log kill t0: 0 log
[1]; Triclosan Conc. 355.6 ppm
  Log kill 24 h: 1 log
  Log kill 48 h: 2 log
  Log kill 7 days: 2 log
  Log kill t0: 1 log
[1]; Triclosan Conc. 800 ppm
  Log kill 24 h: 1 log
  Log kill 48 h: 2.5 log
  Log kill 7 days: 4 log
  Log kill t0: 1 log

## zinc pyrithione [ZPT]
[1]; 800 ppm active, before 48 h
  control of P. aeruginosa before 48 h: no control
[1]; Active Conc. 46.8 ppm
  Log kill 24 h: 0 log
  Log kill 48 h: 0 log
  Log kill 7 days: 2 log
  Log kill t0: 0 log
[1]; Active Conc. 533.3 ppm
  Log kill 24 h: 0 log
  Log kill 48 h: 1.5 log
  Log kill 7 days: 3 log
  Log kill t0: 0 log
[1]; Active Conc. 800 ppm
  Log kill 24 h: 0 log
  Log kill 48 h: 2 log
  Log kill t0: 0 log
[2]; Active Conc. 5.9 ppm
  Log kill 24 h: 0 log
  Log kill 48 h: 1 log
  Log kill 7 days: 1 log
  Log kill t0: 0 log
[2]; Active Conc. 29.6 ppm
  Log kill 24 h: 0 log
  Log kill 48 h: 1 log
  Log kill 7 days: 1 log
  Log kill t0: 0 log
[2]; Active Conc. 100 ppm
  Log kill 24 h: 0.5 log
  Log kill 48 h: 1.5 log
  Log kill 7 days: 2 log
  Log kill t0: 1 log
